The text below walks through data of PMC6214909, “An asparagine/glycine switch governs product specificity of human N-terminal methyltransferase NTMT2” (Communications Biology, 2018).

In one assay the target is T1, NTMT2 (Homo sapiens, UniProt Q5VVY1).
T1 construct: DNA encoding human NTMT2 (residues 58–278) was amplified by PCR; SUMO (His8-SUMO of the pET28-MKH8SUMO vector, with TEV site) (N, cleaved yes); made in house; host or cells: Escherichia coli BL21 (DE3)
Kind of assay: MALDI-MS methyltransferase activity assay, NTMT2. The class given is biochemical. Conditions: 2 μM NTMT2, 10 μM peptide, 200 μM SAM, 25 mM Tris–HCl pH 7.5, 50 mM KCl, 37 °C, overnight. How it is done:
(§1) A mixture (36 μL) of 2 μM enzyme (NTMT1 or NTMT2), 25 mM Tris–HCl pH 7.5, 50 mM KCl and 200 μM SAM was incubated at 37 °C for 5 min. 4 μL of 100 μM peptide substrate (final concentration 10 μM) was then added to initiate the reaction. The reaction was incubated overnight and then stopped with quenching solution (20 mM NH4H2PO4, 0.4% (v/v) TFA in 1:1 acetonitrile/water). Reaction mixtures were analyzed with an Applied Biosystems Voyager matrix-assisted laser desorption/ionization time-of-flight mass spectrometer. Processing of all spectra results in Data Explorer included application of a noise filter (correlation factor of 1.0) and a baseline correction. Areas of the monoisotopic peaks for all relevant species were combined to obtain a total area for each sample. The fraction of each methylation state was calculated by summing the areas of all the monoisotopic peaks for that state ([M + H]^+, [M + Na]^+, [M + K]^+, [M – H + 2Na]^+, [M – H + 2 K]^+, and [M – H + Na + K]^+) and then dividing by the total area.

A further assay has as its system NTMT2-N89G mutant. Kind of assay: MALDI-MS methyltransferase activity assay, NTMT2-N89G mutant. The class given is biochemical, human. Particulars: NTMT2-N89G under the same conditions (2 μM enzyme, 10 μM peptide, 200 μM SAM, pH 7.5, 37 °C, overnight). The protocol: as §1
The next assay relates to NTMT1. The assay can be described thus: MALDI-MS methyltransferase activity assay, NTMT1. The format is biochemical, human. Conditions: 2 μM NTMT1, 10 μM peptide, 200 μM SAM, 25 mM Tris–HCl pH 7.5, 50 mM KCl, 37 °C, overnight. The protocol:
as §1

T1 sequence (Q5VVY1 58-278): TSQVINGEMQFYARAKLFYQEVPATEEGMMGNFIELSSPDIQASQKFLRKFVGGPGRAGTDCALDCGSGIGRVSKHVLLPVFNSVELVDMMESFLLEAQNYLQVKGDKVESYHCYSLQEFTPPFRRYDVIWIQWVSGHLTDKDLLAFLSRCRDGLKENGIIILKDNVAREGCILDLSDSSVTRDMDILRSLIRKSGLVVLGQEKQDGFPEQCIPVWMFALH

For the substance “CPKRIA [synthetic XPKRIA hexapeptide substrate, X = C]”, on NTMT2, the Di-methylated fraction came to 0.00%, the Mono-methylated fraction was 25.20%, the Trimethylated fraction is recorded as 0.00% and the Unmethylated fraction was determined as 74.80%. In the assay on NTMT2-N89G mutant, this substance came in with a Di-methylated fraction of 0.00%, a Mono-methylated fraction of 63.38%, a Trimethylated fraction of 0.00% and an Unmethylated fraction of 36.62%. In the assay with NTMT1, this substance showed a Di-methylated fraction of 44.61%, a Mono-methylated fraction of 27.87%, a Trimethylated fraction of 0.00% and an Unmethylated fraction of 27.51%.
For the substance “EPKRIA [synthetic XPKRIA hexapeptide substrate, X = E]”, on NTMT2, the Di-methylated fraction stood at 0.00%, the Mono-methylated fraction was 0.00%, the Trimethylated fraction was 0.00% and the Unmethylated fraction is recorded as 100.00%. In the assay with NTMT2-N89G mutant, this substance displayed a Di-methylated fraction of 0.00%, a Mono-methylated fraction of 0.00%, a Trimethylated fraction of 0.00% and an Unmethylated fraction of 100.00%. In the assay with NTMT1, this substance displayed a Di-methylated fraction of 0.00%, a Mono-methylated fraction of 10.70%, a Trimethylated fraction of 0.00% and an Unmethylated fraction of 89.30%.
Take “FPKRIA [synthetic XPKRIA hexapeptide substrate, X = F]”: on NTMT2, the Di-methylated fraction is given as 0.00%, the Mono-methylated fraction was found to be 50.22%, the Trimethylated fraction came to 0.00% and the Unmethylated fraction was 49.78%. In the assay with NTMT2-N89G mutant, the Di-methylated fraction is recorded as 0.00%, the Mono-methylated fraction was found to be 100.00%, the Trimethylated fraction stood at 0.00% and the Unmethylated fraction came to 0.00%. In addition, in the assay on NTMT1, the Di-methylated fraction was found to be 97.34%, the Mono-methylated fraction is recorded as 0.00%, the Trimethylated fraction was determined as 2.66% and the Unmethylated fraction was 0.00%.
Consider “QPKRIA [synthetic XPKRIA hexapeptide substrate, X = Q]”, for which, on NTMT2, the Di-methylated fraction was 0.00%, the Mono-methylated fraction is 0.00%, the Trimethylated fraction turned out to be 0.00% and the Unmethylated fraction came out at 100.00%. In the assay with NTMT2-N89G mutant, this substance gave a Di-methylated fraction of 0.00%, a Mono-methylated fraction of 32.39%, a Trimethylated fraction of 0.00% and an Unmethylated fraction of 67.61%. Also, in the assay with NTMT1, the Di-methylated fraction is reported as 100.00%, the Mono-methylated fraction is recorded as 0.00%, the Trimethylated fraction is recorded as 0.00% and the Unmethylated fraction is recorded as 0.00%.
On NTMT2, “NPKRIA [synthetic XPKRIA hexapeptide substrate, X = N]” had a Di-methylated fraction of 0.00%, a Mono-methylated fraction of 0.00%, a Trimethylated fraction of 0.00% and an Unmethylated fraction of 100.00%. Besides, in the assay on NTMT2-N89G mutant, the Di-methylated fraction came out at 0.00%, the Mono-methylated fraction stood at 21.58% and the Trimethylated fraction came out at 0.00%. Moreover, in the assay with NTMT1, the Di-methylated fraction is 100.00%, the Mono-methylated fraction turned out to be 0.00%, the Trimethylated fraction worked out at 0.00% and the Unmethylated fraction was 0.00%.
At NTMT2, “GPKRIA [synthetic XPKRIA hexapeptide substrate, X = G]” registered a Di-methylated fraction of 20.14%, a Mono-methylated fraction of 15.31%, a Trimethylated fraction of 27.94% and an Unmethylated fraction of 36.61%. In the assay with NTMT2-N89G mutant, this substance came in with a Di-methylated fraction of 19.61%, a Mono-methylated fraction of 6.64%, a Trimethylated fraction of 60.27% and an Unmethylated fraction of 13.49%. Moreover, in the assay with NTMT1, the Di-methylated fraction is given as 0.00%, the Mono-methylated fraction is reported as 0.00%, the Trimethylated fraction was 100.00% and the Unmethylated fraction was 0.00%.
For “APKRIA [synthetic XPKRIA hexapeptide substrate, X = A]”, on NTMT2, the Di-methylated fraction was 0.00%, the Mono-methylated fraction is 32.17%, the Trimethylated fraction is reported as 0.00% and the Unmethylated fraction is 67.83%. In the assay on NTMT2-N89G mutant, the Di-methylated fraction is given as 26.21%, the Mono-methylated fraction was found to be 71.86%, the Trimethylated fraction came out at 1.93% and the Unmethylated fraction is 0.00%. Besides, in the assay on NTMT1, the Di-methylated fraction came to 0.00%, the Mono-methylated fraction was 0.00%, the Trimethylated fraction amounted to 100.00% and the Unmethylated fraction is recorded as 0.00%.
At NTMT2, “LPKRIA [synthetic XPKRIA hexapeptide substrate, X = L]” came in with a Di-methylated fraction of 0.00%, a Mono-methylated fraction of 3.16%, a Trimethylated fraction of 0.00% and an Unmethylated fraction of 96.84%. In addition, in the assay on NTMT2-N89G mutant, the Di-methylated fraction is recorded as 0.00%, the Mono-methylated fraction was 18.14%, the Trimethylated fraction is 0.00% and the Unmethylated fraction amounted to 81.86%. For the same substance, in the assay with NTMT1, the Di-methylated fraction was 70.78%, the Mono-methylated fraction amounted to 26.28%, the Trimethylated fraction was found to be 2.94% and the Unmethylated fraction is 0.00%.
In the case of “WPKRIA [synthetic XPKRIA hexapeptide substrate, X = W]”, on NTMT2, the Di-methylated fraction was determined as 0.00%, the Mono-methylated fraction is listed as 36.35%, the Trimethylated fraction came to 0.00% and the Unmethylated fraction was 63.65%. In the assay with NTMT2-N89G mutant, the Di-methylated fraction was 0.00%, the Mono-methylated fraction was determined as 100.00%, the Trimethylated fraction amounted to 0.00% and the Unmethylated fraction is given as 0.00%. In the assay on NTMT1, this substance returned a Di-methylated fraction of 17.46%, a Mono-methylated fraction of 67.03%, a Trimethylated fraction of 0.00% and an Unmethylated fraction of 15.51%.
Consider “DPKRIA [synthetic XPKRIA hexapeptide substrate, X = D]”, for which, on NTMT2, the Di-methylated fraction is 0.00%, the Mono-methylated fraction worked out at 0.00%, the Trimethylated fraction came to 0.00% and the Unmethylated fraction is listed as 100.00%. In the assay on NTMT2-N89G mutant, the Di-methylated fraction was 0.00%, the Mono-methylated fraction was 0.00%, the Trimethylated fraction is listed as 0.00% and the Unmethylated fraction amounted to 100.00%. In the assay on NTMT1, the Di-methylated fraction was 0.00%, the Mono-methylated fraction is 9.37%, the Trimethylated fraction stood at 0.00% and the Unmethylated fraction is given as 90.64%.
